In US9708314B2, “Heterocyclic amide compound” (NISSAN CHEMICAL INDUSTRIES, LTD., priority 2013, dated 2017):

How the values were obtained:
Assay type in all cases: in vivo
Scirpus juncoides [1] = assay: Test Example 1: herbicidal activity, application before weed generation in submerged conditions; conditions: Application herbicide amount 320 g/ha; Seventeenth Table
Outline: (§1)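 Submerged pot test: alluvial soil, 4 cm water, seeds sown mixed, 2.5-leaf rice transplanted; emulsion in water applied to surface day of sowing, dose g/ha; greenhouse 25–30° C.; 3 wk; 0–5 rating.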

Monochoria vaginalis [2] = assay: as above; conditions: Application herbicide amount 320 g/ha; Seventeenth Table
Outline: as §1

[3] = system: Echinochloa oryzacola Vasing.; assay: as above; conditions: Application herbicide amount 320 g/ha; Seventeenth Table
Outline: as §1

[4] = system: directly sowed Oryza sativa; assay: Test Example 3: effect on crop by application to foliage (Wagner pot, water depth 0.1-0.5 cm); conditions: Nineteenth Table; application to foliage; application herbicide amount 320 g/ha
Outline: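 Alluvial soil in 1/10000 are Wagner pots, sown and grown 14 days in a 25–30 °C greenhouse. An emulsifiable concentrate diluted in water to the set dose (g/ha) was sprayed on stems and leaves. Effect scored three weeks later on a 0–5 scale: 5 = ≥90% herbicidal ratio, 0 = ≤5%.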

Scirpus juncoides [5] = assay: Test Example 2: herbicidal activity, application during weed generation in submerged conditions; conditions: Eighteenth Table; application herbicide amount 320 g/ha
Outline: (§2)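 Paddy-type pot test: flooded soil, 4 cm depth, greenhouse 25–30 °C. Emulsion formulation diluted in water, applied to water surface at 1–2 leaf stage; rate expressed as g/ha. Read-out at 3 wk, 0–5 score.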

Monochoria vaginalis [6] = assay: as above; conditions: Eighteenth Table; application herbicide amount 320 g/ha
Outline: as §2

[7] = system: Echinochloa oryzacola Vasing.; assay: as above; conditions: Eighteenth Table; application herbicide amount 320 g/ha
Outline: as §2

Structure (SMILES): Cc1nnc(NC(=O)c2ccc(C(F)(F)F)n3c(-c4cc5ccccc5n4C)nnc23)o1 [1-059]
- B: Scirpus juncoides (herbicidal effect grade) (Scirpus juncoides [1]): 3 (Herbicidal ratio of 40% or more and less than 70%)
- C: Monochoria vaginalis (herbicidal effect grade) (Monochoria vaginalis [2]): 2 (Herbicidal ratio of 20% or more and less than 40%)
- A: Echinochloa oryzicola Vasing. (herbicidal effect grade) [3]: 2 (Herbicidal ratio of 20% or more and less than 40%)
- b (effect on crop grade) [4]: 0 (Herbicidal ratio of 5% or less (almost no effect))
- B (Scirpus juncoides) herbicidal ratio grade (Scirpus juncoides [5]): 3 (Herbicidal ratio of 40% or more and less than 70%)
- C (Monochoria vaginalis) herbicidal ratio grade (Monochoria vaginalis [6]): 2 (Herbicidal ratio of 20% or more and less than 40%)
- A (Echinochloa oryzicola Vasing.) herbicidal ratio grade [7]: 2 (Herbicidal ratio of 20% or more and less than 40%)

Structure (SMILES): COCCOC(=O)Cc1nnc2c(C(=O)Nc3nnc(C)o3)ccc(C(F)(F)F)n12 [1-060]
- B: Scirpus juncoides (herbicidal effect grade) (Scirpus juncoides [1]): 4 (Herbicidal ratio of 70% or more and less than 90%)
- C: Monochoria vaginalis (herbicidal effect grade) (Monochoria vaginalis [2]): 3 (Herbicidal ratio of 40% or more and less than 70%)
- A: Echinochloa oryzicola Vasing. (herbicidal effect grade) [3]: 4 (Herbicidal ratio of 70% or more and less than 90%)
- b (effect on crop grade) [4]: 2 (Herbicidal ratio of 20% or more and less than 40%)
- B (Scirpus juncoides) herbicidal ratio grade (Scirpus juncoides [5]): 3 (Herbicidal ratio of 40% or more and less than 70%)
- C (Monochoria vaginalis) herbicidal ratio grade (Monochoria vaginalis [6]): 2 (Herbicidal ratio of 20% or more and less than 40%)
- A (Echinochloa oryzicola Vasing.) herbicidal ratio grade [7]: 2 (Herbicidal ratio of 20% or more and less than 40%)

Structure (SMILES): CC(=O)OCc1nnc2c(C(=O)Nc3nnc(C)o3)ccc(C(F)(F)F)n12 [1-062]
- B: Scirpus juncoides (herbicidal effect grade) (Scirpus juncoides [1]): 2 (Herbicidal ratio of 20% or more and less than 40%)
- C: Monochoria vaginalis (herbicidal effect grade) (Monochoria vaginalis [2]): 1 (Herbicidal ratio of 5% or more and less than 20%)
- A: Echinochloa oryzicola Vasing. (herbicidal effect grade) [3]: 3 (Herbicidal ratio of 40% or more and less than 70%)
- b (effect on crop grade) [4]: 2 (Herbicidal ratio of 20% or more and less than 40%)
- B (Scirpus juncoides) herbicidal ratio grade (Scirpus juncoides [5]): 2 (Herbicidal ratio of 20% or more and less than 40%)
- C (Monochoria vaginalis) herbicidal ratio grade (Monochoria vaginalis [6]): 2 (Herbicidal ratio of 20% or more and less than 40%)
- A (Echinochloa oryzicola Vasing.) herbicidal ratio grade [7]: 2 (Herbicidal ratio of 20% or more and less than 40%)

Structure (SMILES): COCCSc1nnc2c(C(=O)Nc3nnc(C)o3)ccc(C(F)(F)F)n12 [1-063]
- B: Scirpus juncoides (herbicidal effect grade) (Scirpus juncoides [1]): 4 (Herbicidal ratio of 70% or more and less than 90%)
- C: Monochoria vaginalis (herbicidal effect grade) (Monochoria vaginalis [2]): 3 (Herbicidal ratio of 40% or more and less than 70%)
- A: Echinochloa oryzicola Vasing. (herbicidal effect grade) [3]: 5 (Herbicidal ratio of 90% or more (almost completely withered))
- b (effect on crop grade) [4]: 2 (Herbicidal ratio of 20% or more and less than 40%)
- B (Scirpus juncoides) herbicidal ratio grade (Scirpus juncoides [5]): 3 (Herbicidal ratio of 40% or more and less than 70%)
- C (Monochoria vaginalis) herbicidal ratio grade (Monochoria vaginalis [6]): 2 (Herbicidal ratio of 20% or more and less than 40%)
- A (Echinochloa oryzicola Vasing.) herbicidal ratio grade [7]: 4 (Herbicidal ratio of 70% or more and less than 90%)

Structure (SMILES): C=CCSc1nnc2c(C(=O)Nc3nnc(C)o3)ccc(C(F)(F)F)n12 [1-064]
- B: Scirpus juncoides (herbicidal effect grade) (Scirpus juncoides [1]): 4 (Herbicidal ratio of 70% or more and less than 90%)
- C: Monochoria vaginalis (herbicidal effect grade) (Monochoria vaginalis [2]): 3 (Herbicidal ratio of 40% or more and less than 70%)
- A: Echinochloa oryzicola Vasing. (herbicidal effect grade) [3]: 5 (Herbicidal ratio of 90% or more (almost completely withered))
- b (effect on crop grade) [4]: 2 (Herbicidal ratio of 20% or more and less than 40%)
- B (Scirpus juncoides) herbicidal ratio grade (Scirpus juncoides [5]): 3 (Herbicidal ratio of 40% or more and less than 70%)
- C (Monochoria vaginalis) herbicidal ratio grade (Monochoria vaginalis [6]): 2 (Herbicidal ratio of 20% or more and less than 40%)
- A (Echinochloa oryzicola Vasing.) herbicidal ratio grade [7]: 2 (Herbicidal ratio of 20% or more and less than 40%)

Structure (SMILES): CN(C)c1nnc2c(C(=O)Nc3nnco3)ccc(C(F)(F)F)n12 [1-103]
- B: Scirpus juncoides (herbicidal effect grade) (Scirpus juncoides [1]): 4 (Herbicidal ratio of 70% or more and less than 90%)
- C: Monochoria vaginalis (herbicidal effect grade) (Monochoria vaginalis [2]): 4 (Herbicidal ratio of 70% or more and less than 90%)
- A: Echinochloa oryzicola Vasing. (herbicidal effect grade) [3]: 5 (Herbicidal ratio of 90% or more (almost completely withered))
- b (effect on crop grade) [4]: 4 (Herbicidal ratio of 70% or more and less than 90%)
- B (Scirpus juncoides) herbicidal ratio grade (Scirpus juncoides [5]): 5 (Herbicidal ratio of 90% or more (almost completely withered))
- C (Monochoria vaginalis) herbicidal ratio grade (Monochoria vaginalis [6]): 4 (Herbicidal ratio of 70% or more and less than 90%)
- A (Echinochloa oryzicola Vasing.) herbicidal ratio grade [7]: 4 (Herbicidal ratio of 70% or more and less than 90%)

Structure (SMILES): Cc1nnc(NC(=O)c2ccc(C(F)(F)F)n3c(CC4CC4)nnc23)o1 [1-104]
- B: Scirpus juncoides (herbicidal effect grade) (Scirpus juncoides [1]): 3 (Herbicidal ratio of 40% or more and less than 70%)
- C: Monochoria vaginalis (herbicidal effect grade) (Monochoria vaginalis [2]): 2 (Herbicidal ratio of 20% or more and less than 40%)
- A: Echinochloa oryzicola Vasing. (herbicidal effect grade) [3]: 4 (Herbicidal ratio of 70% or more and less than 90%)
- b (effect on crop grade) [4]: 0 (Herbicidal ratio of 5% or less (almost no effect))
- B (Scirpus juncoides) herbicidal ratio grade (Scirpus juncoides [5]): 3 (Herbicidal ratio of 40% or more and less than 70%)
- C (Monochoria vaginalis) herbicidal ratio grade (Monochoria vaginalis [6]): 3 (Herbicidal ratio of 40% or more and less than 70%)
- A (Echinochloa oryzicola Vasing.) herbicidal ratio grade [7]: 4 (Herbicidal ratio of 70% or more and less than 90%)

Structure (SMILES): Cc1nnc(NC(=O)c2ccc(C(F)(F)F)n3c(C4(C)CC4(Cl)Cl)nnc23)o1 (stereo not shown) [1-105]
- B: Scirpus juncoides (herbicidal effect grade) (Scirpus juncoides [1]): 5 (Herbicidal ratio of 90% or more (almost completely withered))
- C: Monochoria vaginalis (herbicidal effect grade) (Monochoria vaginalis [2]): 4 (Herbicidal ratio of 70% or more and less than 90%)
- A: Echinochloa oryzicola Vasing. (herbicidal effect grade) [3]: 5 (Herbicidal ratio of 90% or more (almost completely withered))
- b (effect on crop grade) [4]: 0 (Herbicidal ratio of 5% or less (almost no effect))
- B (Scirpus juncoides) herbicidal ratio grade (Scirpus juncoides [5]): 4 (Herbicidal ratio of 70% or more and less than 90%)
- C (Monochoria vaginalis) herbicidal ratio grade (Monochoria vaginalis [6]): 3 (Herbicidal ratio of 40% or more and less than 70%)
- A (Echinochloa oryzicola Vasing.) herbicidal ratio grade [7]: 3 (Herbicidal ratio of 40% or more and less than 70%)

Structure (SMILES): CCSc1nnc2c(C(=O)Nc3nnco3)ccc(C(F)(F)F)n12 [1-106]
- B: Scirpus juncoides (herbicidal effect grade) (Scirpus juncoides [1]): 5 (Herbicidal ratio of 90% or more (almost completely withered))
- C: Monochoria vaginalis (herbicidal effect grade) (Monochoria vaginalis [2]): 4 (Herbicidal ratio of 70% or more and less than 90%)
- A: Echinochloa oryzicola Vasing. (herbicidal effect grade) [3]: 5 (Herbicidal ratio of 90% or more (almost completely withered))
- b (effect on crop grade) [4]: 3 (Herbicidal ratio of 40% or more and less than 70%)
- B (Scirpus juncoides) herbicidal ratio grade (Scirpus juncoides [5]): 5 (Herbicidal ratio of 90% or more (almost completely withered))
- C (Monochoria vaginalis) herbicidal ratio grade (Monochoria vaginalis [6]): 4 (Herbicidal ratio of 70% or more and less than 90%)
- A (Echinochloa oryzicola Vasing.) herbicidal ratio grade [7]: 5 (Herbicidal ratio of 90% or more (almost completely withered))

Structure (SMILES): COCCOCc1nnc2c(C(=O)Nc3nnco3)ccc(C(F)(F)F)n12 [1-107]
- B: Scirpus juncoides (herbicidal effect grade) (Scirpus juncoides [1]): 4 (Herbicidal ratio of 70% or more and less than 90%)
- C: Monochoria vaginalis (herbicidal effect grade) (Monochoria vaginalis [2]): 5 (Herbicidal ratio of 90% or more (almost completely withered))
- A: Echinochloa oryzicola Vasing. (herbicidal effect grade) [3]: 5 (Herbicidal ratio of 90% or more (almost completely withered))
- b (effect on crop grade) [4]: 3 (Herbicidal ratio of 40% or more and less than 70%)
- B (Scirpus juncoides) herbicidal ratio grade (Scirpus juncoides [5]): 4 (Herbicidal ratio of 70% or more and less than 90%)
- C (Monochoria vaginalis) herbicidal ratio grade (Monochoria vaginalis [6]): 4 (Herbicidal ratio of 70% or more and less than 90%)
- A (Echinochloa oryzicola Vasing.) herbicidal ratio grade [7]: 5 (Herbicidal ratio of 90% or more (almost completely withered))

Structure (SMILES): CCCSc1nnc2c(C(=O)Nc3nnco3)ccc(C(F)(F)F)n12 [1-108]
- B: Scirpus juncoides (herbicidal effect grade) (Scirpus juncoides [1]): 5 (Herbicidal ratio of 90% or more (almost completely withered))
- C: Monochoria vaginalis (herbicidal effect grade) (Monochoria vaginalis [2]): 5 (Herbicidal ratio of 90% or more (almost completely withered))
- A: Echinochloa oryzicola Vasing. (herbicidal effect grade) [3]: 5 (Herbicidal ratio of 90% or more (almost completely withered))
- b (effect on crop grade) [4]: 1 (Herbicidal ratio of 5% or more and less than 20%)
- B (Scirpus juncoides) herbicidal ratio grade (Scirpus juncoides [5]): 4 (Herbicidal ratio of 70% or more and less than 90%)
- C (Monochoria vaginalis) herbicidal ratio grade (Monochoria vaginalis [6]): 3 (Herbicidal ratio of 40% or more and less than 70%)
- A (Echinochloa oryzicola Vasing.) herbicidal ratio grade [7]: 4 (Herbicidal ratio of 70% or more and less than 90%)

Structure (SMILES): COCCNc1nnc2c(C(=O)Nc3nnc(C)o3)ccc(C(F)(F)F)n12 [1-109]
- B: Scirpus juncoides (herbicidal effect grade) (Scirpus juncoides [1]): 2 (Herbicidal ratio of 20% or more and less than 40%)
- C: Monochoria vaginalis (herbicidal effect grade) (Monochoria vaginalis [2]): 0 (Herbicidal ratio of 5% or less (almost no effect))
- A: Echinochloa oryzicola Vasing. (herbicidal effect grade) [3]: 0 (Herbicidal ratio of 5% or less (almost no effect))
- b (effect on crop grade) [4]: 2 (Herbicidal ratio of 20% or more and less than 40%)
- B (Scirpus juncoides) herbicidal ratio grade (Scirpus juncoides [5]): 1 (Herbicidal ratio of 5% or more and less than 20%)
- C (Monochoria vaginalis) herbicidal ratio grade (Monochoria vaginalis [6]): 0 (Herbicidal ratio of 5% or less (almost no effect))
- A (Echinochloa oryzicola Vasing.) herbicidal ratio grade [7]: 0 (Herbicidal ratio of 5% or less (almost no effect))

Structure (SMILES): O=C(Nc1nnco1)c1ccc(C(F)(F)F)n2c(N3CCOCC3)nnc12 [1-110]
- B: Scirpus juncoides (herbicidal effect grade) (Scirpus juncoides [1]): 4 (Herbicidal ratio of 70% or more and less than 90%)
- C: Monochoria vaginalis (herbicidal effect grade) (Monochoria vaginalis [2]): 4 (Herbicidal ratio of 70% or more and less than 90%)
- A: Echinochloa oryzicola Vasing. (herbicidal effect grade) [3]: 5 (Herbicidal ratio of 90% or more (almost completely withered))
- b (effect on crop grade) [4]: 5 (Herbicidal ratio of 90% or more (almost completely withered))
- B (Scirpus juncoides) herbicidal ratio grade (Scirpus juncoides [5]): 3 (Herbicidal ratio of 40% or more and less than 70%)
- C (Monochoria vaginalis) herbicidal ratio grade (Monochoria vaginalis [6]): 4 (Herbicidal ratio of 70% or more and less than 90%)
- A (Echinochloa oryzicola Vasing.) herbicidal ratio grade [7]: 4 (Herbicidal ratio of 70% or more and less than 90%)
